These are literature values, as cited in patent US11357752B2, “Carolacton and derivatives thereof for use in the treatment of cell proliferation disorders” (Helmholtz-Zentrum für Infektionsforschung GmbH, priority 2017, dated 2022).

Structures are written as SMILES. pIC50: −log10 of the molar value.

The subject of this data set is MTHFD1 or MTHFD2. Conditions: prior-art inhibitor, poor activity; cited from earlier work.

As usually defined, the pIC50 is the negative decadic logarithm of the IC50, by convention in mol/L. Regarding `Nc1nc2c(c(=O)[nH]1)N1C(=O)N(c3ccc(C(=O)N[C@@H](CCC(=O)O)C(=O)O)cc3)CC1CN2` (stereo partly shown) [LY345899], the pIC50 was 3.89.
